{
  "source": "paper PMC2504292",
  "about": "(Nucleic Acids Research, 2008)",
  "key": {"[1]": {"biological_target": "T1, PARN RRM (cap-binding domain of mouse PARN, residues 430-516) (Mus musculus, UniProt Q8VDG3)", "T1 sequence (Q8VDG3 430-516)": "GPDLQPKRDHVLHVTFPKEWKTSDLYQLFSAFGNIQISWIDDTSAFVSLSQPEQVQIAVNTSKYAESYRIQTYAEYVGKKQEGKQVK", "experiment": "isothermal titration calorimetry"}, "[2]": {"biological_target": "T2, PARN RRM (cap-binding domain), NMR/ITC construct (mouse, UniProt Q8VDG3 430-516)", "T2 sequence": "T1 sequence (Q8VDG3 430-516)", "experiment": "NMR HSQC titration"}},
  "data": [
    {"molecule": "C[n+]1cn([C@@H]2O[C@H](COP(=O)(O)OP(=O)(O)OP(=O)(O)OC[C@H]3O[C@@H](n4cnc5c(=O)[nH]c(N)nc54)[C@H](O)[C@@H]3O)[C@@H](O)[C@H]2O)c2nc(N)[nH]c(=O)c21", "note": "[m7GpppG]", "values": [
      {"measurement": "Kd", "setting": "[1]", "value": "~45", "unit": "µM"}
    ]},
    {"molecule": "AAAAAAAAAA (ssRNA)", "note": "[A10 10-mer poly(A)]", "values": [
      {"measurement": "binding result", "setting": "[2]", "value": "no binding"}
    ]}
  ]
}
